According to patent US9561231B2 (AbbVie Inc., priority 2012, dated 2017):

How the values were obtained:
[1] = molecular target: T1, first (BD1: amino acids K57-E168) bromodomain of BRD4 (Homo sapiens, UniProt O60885); test: TR-FRET bromodomain binding assay, BRD4 BD1; details: TR-FRET assay protocol (A-G, compound concentration range); Ki calculated from IC50, probe Kd and probe concentration; read-out: TR-FRET Binding Ki: BRD4 (BDI_K57-E168)
T1 construct: His-tagged first (BD1: amino acids K57-E168)
How it was run: (§1)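 Compounds were serially diluted in DMSO, diluted into pH 6.0 phosphate buffer with NaCl, EDTA, Triton X-100 and DTT, then combined with His-tagged bromodomain and an Alexa647-labeled BET-inhibitor probe. TR-FRET was read, percent inhibition fitted to give IC50, and Ki derived using probe Kd.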

[2] = molecular target: T2, second (BD2: amino acids E352-E168) bromodomain of BRD4 (Homo sapiens, UniProt O60885); test: TR-FRET bromodomain binding assay, BRD4 BD2; details: TR-FRET assay protocol (A-G, compound concentration range); Ki calculated from IC50, probe Kd and probe concentration; read-out: TR-FRET Binding Ki: BRD4 (BDII_E352-M457)
T2 construct: protocol
How it was run: as §1

[3] = system: breast cancer cell line MX-1; test: MX-1 cell line proliferation assay (3-day); assay type: cell-based; details: Homo sapiens, MX1; MX-1 cells, 72 h incubation, Cell Titer Glo; read-out: Cellular proliferation: EC50
How it was run: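 EC50 derived by sigmoidal fitting of Cell Titer Glo signal relative to DMSO controls. Compound, 3 μM down to 0.0001 μM final in 3-fold steps, was added to adhered MX-1 cells (5000/well, RPMI + 10% FBS) for a 3-day incubation at 37° C.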

`CC(=O)c1cc(=O)n(C)nc1-c1ccccc1Oc1ccccc1` [Example 221, 5-acetyl-2-methyl-6-(2-phenoxyphenyl)pyridazin-3(2H)-one] gave a Ki [1] of 0.976 µM, a Ki [2] of 0.517 µM and an EC50 [3] of 7.2 µM.
Work on `Cn1cc(-c2ccccc2Oc2ccccc2)ccc1=O` [Example 223, 1-methyl-5-(2-phenoxyphenyl)pyridin-2(1H)-one] yielded a Ki [1] of 0.635 µM, a Ki [2] of 0.872 µM and an EC50 [3] of 4.81 µM.
`COC(=O)CS(=O)(=O)Nc1ccc(Oc2ccccc2)c(-c2ccc(=O)n(C)c2)c1` [Example 225, methyl {[3-(1-methyl-6-oxo-1,6-dihydropyridin-3-yl)-4-phenoxyphenyl]sulfamoyl}acetate] gave a Ki [1] of 0.152 µM, a Ki [2] of 0.107 µM and an EC50 [3] of 10 µM.
`Cn1cc(-c2cc(NS(=O)(=O)CC(=O)O)ccc2Oc2ccccc2)ccc1=O` [Example 226, {[3-(1-methyl-6-oxo-1,6-dihydropyridin-3-yl)-4-phenoxyphenyl]sulfamoyl}acetic acid] gave a Ki [1] of 0.271 µM, a Ki [2] of 1.13 µM and an EC50 [3] of 10 µM.
For `Cn1cnc(S(=O)(=O)Nc2ccc(Oc3ccccc3)c(-c3ccc(=O)n(C)c3)c2)c1` [Example 227, 1-methyl-N-[3-(1-methyl-6-oxo-1,6-dihydropyridin-3-yl)-4-phenoxyphenyl]-1H-imidazole-4-sulfonamide], the Ki [1] was 0.157 µM, the Ki [2] was 0.42 µM and the EC50 [3] was > 3 µM.
In the case of `Cn1cc(-c2cc(NS(=O)(=O)c3c[nH]cn3)ccc2Oc2ccccc2)ccc1=O` [Example 228, N-[3-(1-methyl-6-oxo-1,6-dihydropyridin-3-yl)-4-phenoxyphenyl]-1H-imidazole-4-sulfonamide], the Ki [1] is reported as 0.142 µM, the Ki [2] is reported as 0.154 µM and the EC50 [3] is reported as > 3 µM.
With `Cn1cc(-c2cc(NS(=O)(=O)CC(F)(F)F)ccc2Oc2ccccc2)ccc1=O` [Example 229, 2,2,2-trifluoro-N-[3-(1-methyl-6-oxo-1,6-dihydropyridin-3-yl)-4-phenoxyphenyl]ethanesulfonamide] the Ki [1] was 0.0318 µM, the Ki [2] was 0.0218 µM and the EC50 [3] was 0.507 µM.
Work on `CNS(=O)(=O)Nc1ccc(Oc2ccccc2)c(-c2ccc(=O)n(C)c2)c1` [Example 230, N-methyl-N′-[3-(1-methyl-6-oxo-1,6-dihydropyridin-3-yl)-4-phenoxyphenyl]sulfuric diamide] yielded a Ki [1] of 0.056 µM, a Ki [2] of 0.048 µM and an EC50 [3] of 0.395 µM.
Work on `Cn1cc(-c2cc(NS(C)(=O)=O)ccc2Oc2ccc(C(F)(F)F)cc2)ccc1=O` [Example 231, N-{3-(1-methyl-6-oxo-1,6-dihydropyridin-3-yl)-4-[4-(trifluoromethyl)phenoxy]phenyl}methanesulfonamide] yielded a Ki [1] of 0.0446 µM, a Ki [2] of 0.539 µM and an EC50 [3] of 0.911 µM.
With `Cn1cc(-c2cc(NS(C)(=O)=O)ccc2Oc2ccc(F)cc2)ccc1=O` [Example 232, N-[4-(4-fluorophenoxy)-3-(1-methyl-6-oxo-1,6-dihydropyridin-3-yl)phenyl]methanesulfonamide] the Ki [1] was 0.0278 µM, the Ki [2] was 0.101 µM and the EC50 [3] was 0.357 µM.
`Cn1cc(-c2cc(NS(C)(=O)=O)ccc2Oc2cccnc2)ccc1=O` [Example 234, N-[3-(1-methyl-6-oxo-1,6-dihydropyridin-3-yl)-4-(pyridin-3-yloxy)phenyl]methanesulfonamide] gave a Ki [1] of 0.0213 µM, a Ki [2] of 0.216 µM and an EC50 [3] of 1.29 µM.
Work on `Cn1cc(-c2cc(NS(C)(=O)=O)ccc2Oc2ccccc2C(F)(F)F)ccc1=O` [Example 236, N-{3-(1-methyl-6-oxo-1,6-dihydropyridin-3-yl)-4-[2-(trifluoromethyl)phenoxy]phenyl}methanesulfonamide] yielded a Ki [1] of 0.0142 µM, a Ki [2] of 0.0816 µM and an EC50 [3] of 0.501 µM.
`Cn1cc(-c2cc(NS(C)(=O)=O)ccc2Oc2ccccc2C#N)ccc1=O` [Example 237, N-[4-(2-cyanophenoxy)-3-(1-methyl-6-oxo-1,6-dihydropyridin-3-yl)phenyl]methanesulfonamide] showed a Ki [1] of 0.0162 µM, a Ki [2] of 0.227 µM and an EC50 [3] of 1.38 µM.
`COc1ccccc1Oc1ccc(NS(C)(=O)=O)cc1-c1ccc(=O)n(C)c1` [Example 238, N-[4-(2-methoxyphenoxy)-3-(1-methyl-6-oxo-1,6-dihydropyridin-3-yl)phenyl]methanesulfonamide] showed a Ki [1] of 0.0292 µM, a Ki [2] of 0.0499 µM and an EC50 [3] of 0.643 µM.
Compound `Cn1cc(-c2cc(NS(C)(=O)=O)ccc2Oc2ccccc2F)ccc1=O` [Example 239, N-[4-(2-fluorophenoxy)-3-(1-methyl-6-oxo-1,6-dihydropyridin-3-yl)phenyl]methanesulfonamide] has a Ki [1] of 0.0326 µM, a Ki [2] of 0.0398 µM and an EC50 [3] of 0.138 µM.
For `Cn1cc(-c2cc(NS(C)(=O)=O)ccc2Oc2cc(F)cc(F)c2)ccc1=O` [Example 242, N-[4-(3,5-difluorophenoxy)-3-(1-methyl-6-oxo-1,6-dihydropyridin-3-yl)phenyl]methanesulfonamide], the Ki [1] was 0.045 µM, the Ki [2] was 0.338 µM and the EC50 [3] was 0.556 µM.
`Cn1cc(-c2cc(NS(C)(=O)=O)ccc2Oc2cccc(Cl)c2)ccc1=O` [Example 243, N-[4-(3-chlorophenoxy)-3-(1-methyl-6-oxo-1,6-dihydropyridin-3-yl)phenyl]methanesulfonamide] was tested, and the Ki [1] was 0.115 µM, the Ki [2] was 0.257 µM and the EC50 [3] was 0.279 µM.
With `Cn1cc(-c2cc(NS(C)(=O)=O)ccc2Oc2cccc(C(F)(F)F)c2)ccc1=O` [Example 244, N-{3-(1-methyl-6-oxo-1,6-dihydropyridin-3-yl)-4-[3-(trifluoromethyl)phenoxy]phenyl}methanesulfonamide] the Ki [1] was 0.116 µM, the Ki [2] was 0.282 µM and the EC50 [3] was 0.481 µM.
`Cn1cc(-c2cc(NS(C)(=O)=O)ccc2Oc2cccc(C#N)c2)ccc1=O` [Example 245, N-[4-(3-cyanophenoxy)-3-(1-methyl-6-oxo-1,6-dihydropyridin-3-yl)phenyl]methanesulfonamide] was tested, and the Ki [1] was 0.0786 µM, the Ki [2] was 0.439 µM and the EC50 [3] was 1.01 µM.
`Cn1cc(-c2cc(NS(C)(=O)=O)ccc2Oc2cccc(F)c2)ccc1=O` [Example 246, N-[4-(3-fluorophenoxy)-3-(1-methyl-6-oxo-1,6-dihydropyridin-3-yl)phenyl]methanesulfonamide] showed a Ki [1] of 0.0431 µM, a Ki [2] of 0.132 µM and an EC50 [3] of 0.238 µM.
`Cn1cc(-c2cc(NS(C)(=O)=O)ccc2OC2CCCCC2)ccc1=O` [Example 247, N-[4-(cyclohexyloxy)-3-(1-methyl-6-oxo-1,6-dihydropyridin-3-yl)phenyl]methanesulfonamide] gave a Ki [1] of 0.0224 µM, a Ki [2] of 0.194 µM and an EC50 [3] of 0.425 µM.
`Cn1cc(-c2cc(NS(C)(=O)=O)ccc2OC2CCCC2)ccc1=O` [Example 248, N-[4-(cyclopentyloxy)-3-(1-methyl-6-oxo-1,6-dihydropyridin-3-yl)phenyl]methanesulfonamide] gave a Ki [1] of 0.156 µM, a Ki [2] of 4.57 µM and an EC50 [3] of 0.488 µM.
`Cn1cc(-c2cc(NS(C)(=O)=O)ccc2OC2CCOC2)ccc1=O` (stereo not drawn) [Example 249, N-[3-(1-methyl-6-oxo-1,6-dihydropyridin-3-yl)-4-(tetrahydrofuran-3-yloxy)phenyl]methanesulfonamide] was tested, and the Ki [1] was 0.0862 µM, the Ki [2] was 0.701 µM and the EC50 [3] was > 3 µM.
In the case of `Cn1cc(-c2cc(NS(C)(=O)=O)ccc2OCC2CCOCC2)ccc1=O` [Example 250, N-[3-(1-methyl-6-oxo-1,6-dihydropyridin-3-yl)-4-(tetrahydro-2H-pyran-4-ylmethoxy)phenyl]methanesulfonamide], the Ki [1] is reported as 0.143 µM, the Ki [2] is reported as 12.5 µM and the EC50 [3] is reported as > 3 µM.
For `Cn1cc(-c2cc(NC(=O)c3ccc[nH]3)ccc2Oc2ccccc2)ccc1=O` [Example 251, N-[3-(1-methyl-6-oxo-1,6-dihydropyridin-3-yl)-4-phenoxyphenyl]-1H-pyrrole-2-carboxamide], the Ki [1] was 0.197 µM, the Ki [2] was 0.26 µM and the EC50 [3] was 1.1 µM.
With `Cn1cc(-c2cc(NC(=O)CNC(=O)OC(C)(C)C)ccc2Oc2ccccc2)ccc1=O` [Example 252, tert-butyl (2-{[3-(1-methyl-6-oxo-1,6-dihydropyridin-3-yl)-4-phenoxyphenyl]amino}-2-oxoethyl)carbamate] the Ki [1] was 0.297 µM, the Ki [2] was 0.695 µM and the EC50 [3] was > 3 µM.
`Cn1cc(-c2cc(NC(=O)CN)ccc2Oc2ccccc2)ccc1=O` [Example 253, N-[3-(1-methyl-6-oxo-1,6-dihydropyridin-3-yl)-4-phenoxyphenyl]glycinamide] was tested, and the Ki [1] was 0.942 µM, the Ki [2] was 3.29 µM and the EC50 [3] was > 3 µM.
In the case of `CCNS(=O)(=O)c1ccc(Oc2ccccc2)c(-c2ccc(=O)n(C)c2)c1` [Example 255, N-ethyl-3-(1-methyl-6-oxo-1,6-dihydropyridin-3-yl)-4-phenoxybenzenesulfonamide], the Ki [1] is reported as 0.635 µM, the Ki [2] is reported as 0.142 µM and the EC50 [3] is reported as > 3 µM.
With `Cn1cc(-c2cc(S(N)(=O)=O)ccc2Oc2ccccc2)ccc1=O` [Example 256, 3-(1-methyl-6-oxo-1,6-dihydropyridin-3-yl)-4-phenoxybenzenesulfonamide] the Ki [1] was 0.219 µM, the Ki [2] was 0.0936 µM and the EC50 [3] was 1.06 µM.
Compound `COc1cc(=O)n(C)cc1-c1ccccc1Oc1ccccc1` [Example 258, 4-methoxy-1-methyl-5-(2-phenoxyphenyl)pyridin-2(1H)-one] has a Ki [1] of 0.73 µM, a Ki [2] of 0.382 µM and an EC50 [3] of 1.51 µM.
In the case of `COc1cc(=O)n(C)cc1-c1cc(NS(C)(=O)=O)ccc1Oc1ccccc1` [Example 259, N-[3-(4-methoxy-1-methyl-6-oxo-1,6-dihydropyridin-3-yl)-4-phenoxyphenyl]methanesulfonamide], the Ki [1] is reported as 0.0286 µM, the Ki [2] is reported as 0.00941 µM and the EC50 [3] is reported as 0.13 µM.
